From patent US6887869B2, “Mikanolide derivatives, their preparation and therapeutic uses” (Societe de Conseils de Recherches et d'Applications …, priority 2001, dated 2005)

Key:
[1] = system: Mia-PaCa2 (human pancreatic cancer cells); assay: Measurement of cell proliferation (WST1), Mia-PaCa2; format: cell-based; settings: MIA PaCa-2, Mia-Paca2, 96 hours treatment, read-out: IC50 inhibitory concentration, proliferation of Mia-Paca2 cell lines
Method: (§1) DU-145 (human prostate cancer cells), HT29 (cancer of the colon) and Mia-PaCa2 (human pancreatic cancer cells) were acquired from the American Tissue Culture Collection (Rockville, Md., USA).
(§2) Measurement of Cell Proliferation
(§3) The cells placed in 80 μl of Dulbecco's modified Eagle medium (Gibco-BRL, Cergy-Pontoise, France) completed with 10% of foetal calf serum inactivated by heating (Gibco-BRL, Cergy-Pontoise, France), 50000 units/l of penicillin and 50 mg/l streptomycin (Gibco-BRL, Cergy-Pontoise, France), and 2 mM of glutamine (Gibco-BRL, Cergy-Pontoise, France) were seeded on a 96-well plate on day 0. The cells were treated on day 1 for 96 hours with increasing concentrations of each of the compounds to be tested. At the end of the of this period, quantification of the cell proliferation is evaluated by a calorimetric test based on the cleavage of the tetrazolium salt WST1 by mitochondrial dehydrogenases in viable cells leading to the formation of formazan (Boehringer Mannheim, Meylan, France). These tests are carried out in duplicate with 8 determinations per concentration tested. The products are solubilised in dimethylsulphoxide (DMSO) at 10^−2 M and finally used in culture with 0.5% DMSO.

[2] = system: DU-145 (human prostate cancer cells); assay: Measurement of cell proliferation (WST1), DU-145; format: cell-based; settings: DU-145, 96 hours treatment, read-out: IC50 inhibitory concentration, proliferation of DU-145 cell lines
Method: as §1, §2, §3

SMILES	IC50 [1]	IC50 [2]
CC1C(=O)OC2CC3(C)OC3C(OC(=O)c3ccc([N+](=O)[O-])o3)C(N(C)C)C3=CC(OC3=O)C21 (stereo not drawn) [Example 33, 12-(dimethylamino)-3,8-dimethyl-4,14-dioxo-5,9,15-trioxatetracyclo[11.2.1.0^2,6.0^8,10]hexadec-13(16)-en-11-yl 5-nitro-2-furoate]	≤ 30 µM	
CCOc1ccccc1NC(=O)OC1C(N(C)C)C2CC(OC2=O)C2C(CC3(C)OC13)OC(=O)C2C (stereo not drawn) [Example 41, 8-(dimethylamino)-3,10a-dimethyl-2,6-dioxodecahydro-4,7-methenofuro[3,2-c]oxireno[f]oxacycloundecin-9-yl 2-ethoxyphenylcarbamate]	≤ 30 µM	≤ 30 µM
CC1CCN(C2C3=CC(OC3=O)C3C(CC4(C)OC4C2OC(=O)c2ccccc2)OC(=O)C3C)CC1 (stereo not drawn) [Example 18, 3,8-dimethyl-12-(4-methylpiperidino)-4,14-dioxo-11-phenylcarbonyloxy-5,9,15-trioxatetracyclo[11.2.1.0^2,6.0^8,10]hexadec-13(16)-ene]	≤ 30 µM	≤ 30 µM
CC1C(=O)OC2CC3(C)OC3C(O)C(N3CCCC3)C3=CC(OC3=O)C21 (stereo not drawn) [Example 10, 11-hydroxy-3,8-dimethyl-12-pyrrolidino-5,9,15-trioxatetracyclo[11.2.1.0^2,6.0^8,10]hexadec-13(16)-ene-4,14-dione]	≤ 30 µM	
CCCCCCC(=O)OC1C(N(C)C)C2=CC(OC2=O)C2C(CC3(C)OC13)OC(=O)C2C (stereo not drawn) [Example 27, 12-(dimethylamino)-3,8-dimethyl-4,14-dioxo-5,9,15-trioxatetracyclo[11.2.1.0^2,6.0^8,10]hexadec-13(16)-en-11-yl heptanoate]	≤ 30 µM	≤ 30 µM
CC1C(=O)OC2CC3(C)OC3C(OC(=O)Nc3csc4ccccc34)C(N(C)C)C3CC(OC3=O)C21 (stereo not drawn) [Example 43, 8-(dimethylamino)-3,10a-dimethyl-2,6-dioxodecahydro-4,7-methenofuro[3,2-c]oxireno[f]oxacycloundecin-9-yl 1-benzothien-3-ylcarbamate]	≤ 30 µM	≤ 30 µM
CSc1ccccc1NC(=O)OC1C(N(C)C)C2CC(OC2=O)C2C(CC3(C)OC13)OC(=O)C2C (stereo not drawn) [Example 40, 8-(dimethylamino)-3,10a-dimethyl-2,6-dioxodecahydro-4,7-metheno-furo[3,2-c]oxireno[f]oxacycloundecin-9-yl 2(methylthio)phenylcarbamate]	≤ 30 µM	≤ 30 µM
CC1C(=O)OC2CC3(C)OC3C(OC(=O)c3cc4ccccc4s3)C(N(C)C)C3=CC(OC3=O)C21 (stereo not drawn) [Example 31, 12-(dimethylamino)-3,8-dimethyl-4,14-dioxo-5,9,15-trioxatetracyclo[11.2.1.0^2,6.0^8,10]hexadec-13(16)-en-11-yl 1-benzothiophene-2-carboxylate]	≤ 30 µM	≤ 30 µM
CCOC(=O)OC1C(N2CCC(C)CC2)C2=CC(OC2=O)C2C(CC3(C)OC13)OC(=O)C2C (stereo not drawn) [Example 19, ethyl 3,8-dimethyl-12-(4-methylpiperidino)-4,14-dioxo-5,9,15-trioxatetracyclo[11.2.1.0^2,6.0^8,10]hexadec-13(16)-en-11-yl carbonate]	≤ 30 µM	
CC(C)CSCC1C(=O)OC2CC3(C)OC3C(O)C(SCC(C)C)C3=CC(OC3=O)C21 (stereo not drawn) [Example 20, 11-hydroxy-12-isobutylsulphanyl-3-isobutylsulphanylmethyl-8-methyl-5,9,15-trioxatetracyclo[11.2.1.0^2,6.0^8,10]hexadec-13(16)-ene-4,14-dione]	≤ 30 µM	
CC1C(=O)OC2CC3(C)OC3C(OC(=O)c3cccs3)C(N(C)C)C3=CC(OC3=O)C21 (stereo not drawn) [Example 29, 12-(dimethylamino)-3,8-dimethyl-4,14-dioxo-5,9,15-trioxatetracyclo[11.2.1.0^2,6.0^8,10]hexadec-13(16)-en-11-yl 2-thiophenecarboxylate]	≤ 30 µM	≤ 30 µM
CC1CCN(C2C3=CC(OC3=O)C3C(CC4(C)OC4C2O)OC(=O)C3C)CC1 (stereo not drawn) [Example 9, 11-hydroxy-3,8-dimethyl-12-(4-methylpiperidino)-5,9,15-trioxatetracyclo[11.2.1.0^2,6.0^8,10]hexadec-13(16)-ene-4,14-dione]	≤ 30 µM	≤ 30 µM
CC1C(=O)OC2CC3(C)OC3C(OC(=O)Nc3ccc(C(C)(C)C)cc3)C(N(C)C)C3CC(OC3=O)C21 (stereo not drawn) [Example 37, 8-(dimethylamino)-3,10a-dimethyl-2,6-dioxodecahydro-4,7-methenofuro[3,2-c]oxireno[f]oxacycloundecin-9-yl 4-tert-butylphenylcarbamate]	≤ 30 µM	
CC1C(=O)OC2CC3(C)OC3C(OC(=O)c3ccc(C(F)(F)F)cc3)C(N(C)C)C3=CC(OC3=O)C21 (stereo not drawn) [Example 28, 12-(dimethylamino)-3,8-dimethyl-4,14-dioxo-5,9,15-trioxatetracyclo[11.2.1.0^2,6.0^8,10]hexadec-13(16)-en-11-yl 4-(trifluoromethyl)benzoate]	≤ 30 µM	≤ 30 µM
CN(C)CC1C(=O)OC2CC3(C)OC3C(O)C(N(C)C)C3=CC(OC3=O)C21 (stereo not drawn) [Example 2, 12-dimethylamino-3-dimethylaminomethyl-11-hydroxy-8-methyl-5,9,15-trioxatetracyclo[11.2.1.0^2,6.0^8,10]hexadec-13(16)-ene-4,14-dione]	≤ 30 µM	≤ 30 µM
CC12CC3OC(=O)C(CN4CCOCC4)C3C3C=C(C(=O)O3)C(N3CCOCC3)C(O)C1O2 (stereo not drawn) [Example 4, 11-hydroxy-8-methyl-12-morpholino-3-morpholinomethyl-5,9,15-trioxatetracyclo[11.2.1.0^2,6.0^8,10]hexadec-13(16)-ene-4,14-dione]	≤ 30 µM	

Now from value to compound:

IC50 [1]	IC50 [2]	SMILES
≤ 30 µM	≤ 30 µM	COc1ccccc1NC(=O)OC1C(N(C)C)C2CC(OC2=O)C2C(CC3(C)OC13)OC(=O)C2C (stereo not drawn) [Example 39, 8-(dimethylamino)-3,10a-dimethyl-2,6-dioxodecahydro-4,7-methenofuro[3,2-c]oxireno[f]oxacycloundecin-9-yl 2-methoxyphenylcarbamate]
≤ 30 µM		CC1C(=O)OC2CC3(C)OC3C(OC(=O)Cc3cccs3)C(N(C)C)C3=CC(OC3=O)C21 (stereo not drawn) [Example 35, 12-(dimethylamino)-3,8-dimethyl-4,14-dioxo-5,9,15-trioxatetracyclo[11.2.1.0^2,6.0^8,10]hexadec-13(16)-en-11-yl 2-thienylacetate]
≤ 30 µM		CC1C(=O)OC2CC3(C)OC3C(OC(=O)COc3ccccc3)C(N(C)C)C3=CC(OC3=O)C21 (stereo not drawn) [Example 36, 12-(dimethylamino)-3,8-dimethyl-4,14-dioxo-5,9,15-trioxatetracyclo[11.2.1.0^2,6.0^8,10]hexadec-13(16)-en-11-yl phenoxyacetate]
≤ 30 µM	≤ 30 µM	CC1C(=O)OC2CC3(C)OC3C(OC(=O)c3ccc(F)cc3)C(N(C)C)C3=CC(OC3=O)C21 (stereo not drawn) [Example 25, 12-(dimethylamino)-3,8-dimethyl-4,14-dioxo-5,9,15-trioxatetracyclo[11.2.1.0^2,6.0^8,10]hexadec-13(16)-en-11-yl 4-fluorobenzoate]
≤ 30 µM		CC1C(=O)OC2CC3(C)OC3C(O)C(N(C)C)C3=CC(OC3=O)C21 (stereo not drawn) [Example 5, 12-dimethylamino-11-hydroxy-3,8-dimethyl-5,9,15-trioxatetracyclo[11.2.1.0^2,6.0^8,10]hexadec-13(16)-ene-4,14-dione]
≤ 30 µM	≤ 30 µM	CC1C(=O)OC2CC3(C)OC3C(OC(=O)Nc3ccsc3)C(N(C)C)C3CC(OC3=O)C21 (stereo not drawn) [Example 42, 8-(dimethylamino)-3,10a-dimethyl-2,6-dioxodecahydro-4,7-methenofuro[3,2-c]oxireno[f]oxacycloundecin-9-yl thien-3-ylcarbamate]
≤ 30 µM		CC1C(=O)OC2CC3(C)OC3C(O)C(N3CCC(Cc4ccccc4)CC3)C3=CC(OC3=O)C21 (stereo not drawn) [Example 12, 12-(4-benzylpiperidino)-11-hydroxy-3,8-dimethyl-5,9,15-trioxatetracyclo[11.2.1.0^2,6.0^8,10]hexadec-13(16)-ene-4,14-dione]
≤ 30 µM	≤ 30 µM	CC1C(=O)OC2CC3(C)OC3C(OC(=O)CC(C)(C)C)C(N(C)C)C3=CC(OC3=O)C21 (stereo not drawn) [Example 30, 12-(dimethylamino)-3,8-dimethyl-4,14-dioxo-5,9,15-trioxatetracyclo[11.2.1.0^2,6.0^8,10]hexadec-13(16)-en-11-yl 3,3-dimethylbutanoate]
≤ 30 µM	≤ 30 µM	CC1C(=O)OC2CC3(C)OC3C(OC(=O)c3ccco3)C(N(C)C)C3=CC(OC3=O)C21 (stereo not drawn) [Example 32, 12-(dimethylamino)-3,8-dimethyl-4,14-dioxo-5,9,15-trioxatetracyclo[11.2.1.0^2,6.0^8,10]hexadec-13(16)-en-11-yl 2-furoate]
≤ 30 µM	≤ 30 µM	CC1C(=O)OC2CC3(C)OC3C(OC(=O)C3CCCCC3)C(N(C)C)C3=CC(OC3=O)C21 (stereo not drawn) [Example 24, 12-(dimethylamino)-3,8-dimethyl-4,14-dioxo-5,9,15-trioxatetracyclo[11.2.1.0^2,6.0^8,10]hexadec-13(16)-en-11-yl cyclohexanecarboxylate]
